Assays:
[1] = system: BT-549; test: Growth inhibition of human BT549 cells assessed as cell growth at 10 uM after 48 hrs by sulforhodamine B assay; format: functional; conditions: BT-549, 48 h, read-out: Activity
[2] = Growth inhibition of human Hs 578T cells assessed as cell growth at 10 uM after 48 hrs by sulforhodamine B assay; format: functional; conditions: read-out: Activity
[3] = system: UO-31; test: Growth inhibition of human UO31 cells assessed as cell growth at 10 uM after 48 hrs by sulforhodamine B assay; format: functional; conditions: UO-31, 48 h, read-out: Activity
[4] = system: PC-3; test: Growth inhibition of human PC3 cells assessed as cell growth at 10 uM after 48 hrs by sulforhodamine B assay; format: functional; conditions: PC-3, 48 h, read-out: Activity
[5] = system: SN12C; test: Growth inhibition of human SN12C cells assessed as cell growth at 10 uM after 48 hrs by sulforhodamine B assay; format: functional; conditions: read-out: Activity
[6] = system: HT-29; test: Growth inhibition of human HT-29 cells after 48 hrs by sulforhodamine B assay; format: functional; conditions: HT-29, 48 h
[7] = Growth inhibition of human HCC2998 cells after 48 hrs by sulforhodamine B assay; format: functional; conditions: HCC 2998, 48 h
[8] = system: NCI-H23; test: Growth inhibition of human NCI-H23 cells after 48 hrs by sulforhodamine B assay; format: functional; conditions: NCI-H23, 48 h
[9] = system: A549; test: Growth inhibition of human A549/ATCC cells after 48 hrs by sulforhodamine B assay; format: functional; conditions: A549, 48 h
[10] = system: RPMI-8226; test: Growth inhibition of human RPMI8226 cells after 48 hrs by sulforhodamine B assay; format: functional, cell-based; conditions: RPMI-8226, 48 h
[11] = system: K562; test: Growth inhibition of human K562 cells after 48 hrs by sulforhodamine B assay; format: functional; conditions: K562, 48 h
[12] = system: RXF 393; test: Growth inhibition of human RXF393 cells assessed as cell growth at 10 uM after 48 hrs by sulforhodamine B assay; format: functional; conditions: RXF 393, 48 h, read-out: Activity
[13] = system: ACHN; test: Growth inhibition of human ACHN cells assessed as cell growth at 10 uM after 48 hrs by sulforhodamine B assay; format: functional; conditions: read-out: Activity
[14] = system: 786-0; test: Growth inhibition of human 786-0 cells assessed as cell growth at 10 uM after 48 hrs by sulforhodamine B assay; format: functional; conditions: 786-0, 48 h, read-out: Activity
[15] = system: A498; test: Growth inhibition of human A498 cells assessed as cell growth at 10 uM after 48 hrs by sulforhodamine B assay; format: functional; conditions: A498, 48 h, read-out: Activity
[16] = system: SK-OV-3; test: Growth inhibition of human SKOV3 cells assessed as cell growth at 10 uM after 48 hrs by sulforhodamine B assay; format: functional; conditions: SK-OV-3, 48 h, read-out: Activity
[17] = system: OVCAR-3; test: Growth inhibition of human OVCAR3 cells assessed as cell growth at 10 uM after 48 hrs by sulforhodamine B assay; format: functional; conditions: OVCAR-3, 48 h, read-out: Activity
[18] = system: UACC-62; test: Growth inhibition of human UACC62 cells assessed as cell growth at 10 uM after 48 hrs by sulforhodamine B assay; format: functional; conditions: UACC-62, 48 h, read-out: Activity
[19] = system: UACC-257; test: Growth inhibition of human UACC257 cells assessed as cell growth at 10 uM after 48 hrs by sulforhodamine B assay; format: functional; conditions: UACC-257, 48 h, read-out: Activity
[20] = system: SK-MEL-5; test: Growth inhibition of human SK-MEL-5 cells assessed as cell growth at 10 uM after 48 hrs by sulforhodamine B assay; format: functional; conditions: SK-MEL-5, 48 h, read-out: Activity
[21] = system: SK-MEL-2; test: Growth inhibition of human SK-MEL-2 cells assessed as cell growth at 10 uM after 48 hrs by sulforhodamine B assay; format: functional; conditions: SK-MEL-2, 48 h, read-out: Activity
[22] = system: SNB-19; test: Growth inhibition of human SNB19 cells assessed as cell growth at 10 uM after 48 hrs by sulforhodamine B assay; format: functional; conditions: SNB-19, 48 h, read-out: Activity
[23] = system: HCT-116; test: Growth inhibition of human HCT116 cells assessed as cell growth at 10 uM after 48 hrs by sulforhodamine B assay; format: functional; conditions: HCT-116, 48 h, read-out: Activity
[24] = system: MDA-MB-468; test: Growth inhibition of human MDA-MB-468 cells after 48 hrs by sulforhodamine B assay; format: functional, cell-based; conditions: MDA-MB-468, 48 h
[25] = system: T47D; test: Growth inhibition of human T47D cells after 48 hrs by sulforhodamine B assay; format: functional
[26] = system: DU-145; test: Growth inhibition of human DU145 cells after 48 hrs by sulforhodamine B assay; format: functional; conditions: DU-145, 48 h
[27] = system: TK-10; test: Growth inhibition of human TK10 cells after 48 hrs by sulforhodamine B assay; format: functional; conditions: TK-10, 48 h
[28] = system: SK-OV-3; test: Growth inhibition of human SKOV3 cells after 48 hrs by sulforhodamine B assay; format: functional; conditions: SK-OV-3, 48 h
[29] = system: SK-MEL-5; test: Growth inhibition of human SK-MEL-5 cells after 48 hrs by sulforhodamine B assay; format: functional; conditions: SK-MEL-5, 48 h
[30] = system: SK-MEL-28; test: Growth inhibition of human SK-MEL-28 cells after 48 hrs by sulforhodamine B assay; format: functional; conditions: SK-MEL-28, 48 h
[31] = system: SNB-75; test: Growth inhibition of human SNB75 cells after 48 hrs by sulforhodamine B assay; format: functional; conditions: SNB-75, 48 h
[32] = system: U-251; test: Growth inhibition of human U251 cells after 48 hrs by sulforhodamine B assay; format: functional; conditions: U-251, 48 h
[33] = system: SF-539; test: Growth inhibition of human SF539 cells after 48 hrs by sulforhodamine B assay; format: functional; conditions: SF-539, 48 h
[34] = system: HL-60(TB); test: Growth inhibition of human HL-60(TB) cells assessed as cell growth at 10 uM after 48 hrs by sulforhodamine B assay; format: functional; conditions: HL-60, 48 h, read-out: Activity
[35] = read-out: LC50 (the source's name)

COc1cc(-c2nn(-c3cccc(NC(=O)c4ccc(Cl)c(C(F)(F)F)c4)c3)cc2-c2ccncc2)ccc1Cl
growth at 10 µM [1]: 49.7% | growth at 10 µM [2]: 34.7% | growth at 10 µM [3]: 37.1% | growth at 10 µM [4]: 18.6% | growth at 10 µM [5]: 57.3% | GI50 [6]: 3.38 µM | TGI [6]: > 32.5 µM | CC50 [6, 35]: > 32.5 µM | GI50 [7]: 7.86 µM | TGI [7]: > 32.5 µM | CC50 [7, 35]: > 32.5 µM | GI50 [8]: 5.39 µM | LC50 [8]: > 32.5 µM | TGI [8]: > 32.5 µM | GI50 [9]: 2.4 µM | LC50 (concentration killing 50% of starting cells) [9]: > 32.5 µM | TGI [9]: > 32.5 µM | GI50 [10]: 1.62 µM | IC50 [10]: 1.62 µM | TGI [10]: > 32.5 µM | CC50 [10, 35]: > 32.5 µM | GI50 [11]: 1.61 µM | TGI [11]: > 32.5 µM | CC50 [11, 35]: > 32.5 µM | growth at 10 µM [12]: -0.4% | growth at 10 µM [13]: 39.1% | growth at 10 µM [14]: 59.5% | growth at 10 µM [15]: 11.8% | growth at 10 µM [16]: 64.3% | growth at 10 µM [17]: 19.5% | growth at 10 µM [18]: 32.8% | growth at 10 µM [19]: 23.5% | growth at 10 µM [20]: 17.5% | growth at 10 µM [21]: 18.9% | growth at 10 µM [22]: 66% | growth at 10 µM [23]: 24% | GI50 [24]: 3.69 µM | IC50 [24]: 3.69 µM | TGI [24]: > 32.5 µM | CC50 [24, 35]: > 32.5 µM | GI50 [25]: 2.05 µM | TGI [25]: > 32.5 µM | CC50 [25, 35]: > 32.5 µM | GI50 [26]: 6.39 µM | LC50 [26]: > 32.5 µM | TGI [26]: > 32.5 µM | GI50 [27]: 20.4 µM | TGI [27]: > 32.5 µM | CC50 [27, 35]: > 32.5 µM | GI50 [28]: 9.29 µM | TGI [28]: > 32.5 µM | CC50 [28, 35]: > 32.5 µM | GI50 [29]: 1.38 µM | LC50 (concentration killing 50% of cells) [29]: 31.8 µM | TGI [29]: 6.87 µM | GI50 [30]: 3.08 µM | LC50 [30]: > 32.5 µM | TGI [30]: > 32.5 µM | GI50 [31]: 2.19 µM | LC50 (lethal concentration, 50% net cell kill) [31]: > 32.5 µM | TGI [31]: 29.2 µM | GI50 [32]: 3.1 µM | LC50 (concentration killing 50% of cells) [32]: > 32.5 µM | TGI [32]: > 32.5 µM | GI50 [33]: 4.13 µM | LC50 (concentration killing 50% of cells) [33]: > 32.5 µM | TGI [33]: 20.3 µM | growth at 10 µM [34]: 3.23%
